Laboratory results reported in patent US12492188B2, “1H-benzo[D]imidazole derivatives as TLR9 inhibitors for the treatment of fibrosis” (BRISTOL-MYERS SQUIBB COMPANY, priority 2020, dated 2025).
Like-named read-outs stand apart in the source and are kept apart here.

Key:
Type in all cases: cell-based
[1] = target: T1, human TLR9 (Homo sapiens, UniProt Q9NR96); test: TLR9 inhibition reporter assay (HEK-Blue cells, secreted embryonic alkaline phosphatase reporter)
T1 construct: host or cells: HEK-Blue cells (HEK293-derived reporter line)
T1 sequence (Q9NR96 26-1032): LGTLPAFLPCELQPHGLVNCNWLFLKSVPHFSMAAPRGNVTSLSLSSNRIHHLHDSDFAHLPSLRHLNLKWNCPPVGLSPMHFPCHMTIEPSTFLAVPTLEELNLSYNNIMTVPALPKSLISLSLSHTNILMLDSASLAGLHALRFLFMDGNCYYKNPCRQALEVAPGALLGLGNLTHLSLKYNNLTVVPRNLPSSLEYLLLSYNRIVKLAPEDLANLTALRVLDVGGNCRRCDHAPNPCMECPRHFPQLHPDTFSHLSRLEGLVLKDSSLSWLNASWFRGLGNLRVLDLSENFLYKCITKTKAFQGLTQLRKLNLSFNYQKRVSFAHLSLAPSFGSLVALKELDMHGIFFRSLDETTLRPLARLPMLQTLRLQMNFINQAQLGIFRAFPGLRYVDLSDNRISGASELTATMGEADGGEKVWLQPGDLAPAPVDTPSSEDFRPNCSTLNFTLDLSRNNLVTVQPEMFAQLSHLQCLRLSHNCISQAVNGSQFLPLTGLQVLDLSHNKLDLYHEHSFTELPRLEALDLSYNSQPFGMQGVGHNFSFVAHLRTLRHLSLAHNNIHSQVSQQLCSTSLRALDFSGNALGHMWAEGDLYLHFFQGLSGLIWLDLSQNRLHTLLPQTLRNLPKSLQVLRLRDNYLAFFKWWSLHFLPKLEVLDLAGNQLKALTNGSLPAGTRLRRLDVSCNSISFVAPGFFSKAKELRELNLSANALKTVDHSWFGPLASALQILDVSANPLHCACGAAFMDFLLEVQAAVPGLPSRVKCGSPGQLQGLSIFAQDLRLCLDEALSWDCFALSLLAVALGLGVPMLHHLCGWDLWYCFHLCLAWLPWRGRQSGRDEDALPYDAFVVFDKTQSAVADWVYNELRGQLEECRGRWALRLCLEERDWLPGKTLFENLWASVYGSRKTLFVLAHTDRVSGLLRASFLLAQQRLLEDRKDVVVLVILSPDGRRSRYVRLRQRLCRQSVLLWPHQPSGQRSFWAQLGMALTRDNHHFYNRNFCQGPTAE
In short: (§1)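 HEK-Blue cells expressing human TLR7, TLR8 or TLR9 with an NF-κB/AP-1-driven SEAP reporter were pretreated with compound (0.05 nM–50 μM final) for 30 min at room temperature. Agonists were gardiquimod 7.5 μM for TLR7, R848 15.9 μM for TLR8 and ODN2006 5 nM for TLR9. SEAP was read after 22 h at 37 °C, and inhibition was calculated relative to agonist-plus-DMSO and known-inhibitor controls.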

[2] = target: T2, human TLR7 (Homo sapiens, UniProt Q9NYK1); test: TLR7 inhibition reporter assay (HEK-Blue cells, secreted embryonic alkaline phosphatase reporter); conditions: HEK-Blue cells overexpressing human TLR7, stimulated with gardiquimod 7.5 μM; read-out: TLR 7 IC50
T2 construct: host or cells: HEK-Blue cells (HEK293-derived reporter line)
T2 sequence (Q9NYK1 27-1049): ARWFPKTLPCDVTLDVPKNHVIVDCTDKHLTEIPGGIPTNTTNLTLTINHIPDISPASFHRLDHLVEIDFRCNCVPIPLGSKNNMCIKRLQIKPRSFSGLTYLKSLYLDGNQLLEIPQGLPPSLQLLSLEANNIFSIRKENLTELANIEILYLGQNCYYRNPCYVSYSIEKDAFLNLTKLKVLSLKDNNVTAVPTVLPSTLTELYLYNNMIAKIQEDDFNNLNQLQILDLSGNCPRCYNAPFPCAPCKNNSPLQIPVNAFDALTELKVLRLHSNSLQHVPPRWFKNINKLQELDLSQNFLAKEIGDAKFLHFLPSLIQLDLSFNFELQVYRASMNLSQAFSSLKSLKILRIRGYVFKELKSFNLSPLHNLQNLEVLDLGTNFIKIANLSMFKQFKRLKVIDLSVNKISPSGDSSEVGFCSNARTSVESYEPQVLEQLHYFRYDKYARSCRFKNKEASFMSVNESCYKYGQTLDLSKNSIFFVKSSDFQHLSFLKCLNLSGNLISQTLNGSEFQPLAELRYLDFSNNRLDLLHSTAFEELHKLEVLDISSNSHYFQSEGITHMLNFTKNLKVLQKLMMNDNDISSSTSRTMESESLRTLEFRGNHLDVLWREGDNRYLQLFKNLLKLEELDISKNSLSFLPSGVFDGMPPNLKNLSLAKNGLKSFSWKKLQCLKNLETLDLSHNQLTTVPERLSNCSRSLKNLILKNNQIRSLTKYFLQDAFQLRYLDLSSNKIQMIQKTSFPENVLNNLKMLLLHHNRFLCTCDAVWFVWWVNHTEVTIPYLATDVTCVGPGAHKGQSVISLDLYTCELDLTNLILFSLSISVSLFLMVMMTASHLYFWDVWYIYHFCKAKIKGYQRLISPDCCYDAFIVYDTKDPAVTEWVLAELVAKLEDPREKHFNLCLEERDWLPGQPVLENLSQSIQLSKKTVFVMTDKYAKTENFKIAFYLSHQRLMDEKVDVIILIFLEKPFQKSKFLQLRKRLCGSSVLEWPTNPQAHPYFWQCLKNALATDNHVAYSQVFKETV
In short: as §1

[3] = target: T3, human TLR8 (Homo sapiens, UniProt Q9NR97); test: TLR8 inhibition reporter assay (HEK-Blue cells, secreted embryonic alkaline phosphatase reporter); conditions: HEK-Blue cells overexpressing human TLR8, stimulated with R848 15.9 μM; read-out: TLR 8 IC50
T3 construct: host or cells: HEK-Blue cells (HEK293-derived reporter line)
T3 sequence (Q9NR97 27-1041): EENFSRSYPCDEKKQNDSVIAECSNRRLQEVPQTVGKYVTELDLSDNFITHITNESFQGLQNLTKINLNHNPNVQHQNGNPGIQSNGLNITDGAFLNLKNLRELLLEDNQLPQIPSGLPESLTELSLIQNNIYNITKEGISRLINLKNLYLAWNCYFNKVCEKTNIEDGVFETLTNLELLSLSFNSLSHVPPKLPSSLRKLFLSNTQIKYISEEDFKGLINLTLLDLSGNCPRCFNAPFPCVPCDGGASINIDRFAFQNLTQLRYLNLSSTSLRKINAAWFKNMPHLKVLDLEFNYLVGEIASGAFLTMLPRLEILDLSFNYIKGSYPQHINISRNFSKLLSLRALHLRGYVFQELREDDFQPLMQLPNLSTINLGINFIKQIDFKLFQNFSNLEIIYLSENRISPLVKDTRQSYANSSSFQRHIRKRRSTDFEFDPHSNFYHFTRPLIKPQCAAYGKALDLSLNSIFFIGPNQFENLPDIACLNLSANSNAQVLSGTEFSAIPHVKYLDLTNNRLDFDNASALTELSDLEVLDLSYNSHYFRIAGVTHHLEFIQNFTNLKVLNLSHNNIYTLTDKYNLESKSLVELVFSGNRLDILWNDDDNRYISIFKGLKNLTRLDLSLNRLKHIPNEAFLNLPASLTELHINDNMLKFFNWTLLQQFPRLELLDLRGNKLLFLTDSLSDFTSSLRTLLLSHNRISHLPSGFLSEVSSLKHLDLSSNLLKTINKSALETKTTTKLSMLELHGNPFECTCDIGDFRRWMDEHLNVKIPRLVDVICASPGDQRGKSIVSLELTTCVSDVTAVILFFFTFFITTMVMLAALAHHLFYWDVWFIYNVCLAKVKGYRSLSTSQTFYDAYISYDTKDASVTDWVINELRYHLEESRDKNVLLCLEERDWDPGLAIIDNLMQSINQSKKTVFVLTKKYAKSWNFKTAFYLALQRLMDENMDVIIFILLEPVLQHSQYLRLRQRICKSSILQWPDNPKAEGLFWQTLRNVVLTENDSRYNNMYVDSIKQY
In short: as §1

[4] = HEK-Blue cells overexpressing human TLR9, stimulated with ODN2006 5 nM, read-out: TLR 9 IC50

SMILES: Cn1c(-c2ccc(S(C)(=O)=O)cc2)nc2cc(C3CCN(C4CCN(C5CC5)CC4)CC3)cc(F)c21 [Example 202, 5-(1′-cyclopropyl-[1,4′-bipiperidin]-4-yl)-7-fluoro-1-methyl-2-(4-(methylsulfonyl)phenyl)-1H-benzo[d]imidazole]
- IC50 [1]: 500 nM
- IC50 [1, 4]: 502 nM
- IC50 [2]: > 50000 nM
- IC50 [3]: > 50000 nM

SMILES: Cn1c(-c2ccc(S(C)(=O)=O)cc2)nc2cc(C3CCN(C4CCN(CC5CC5)CC4)CC3)cc(F)c21 [Example 203, 5-(1′-(cyclopropylmethyl)-[1,4′-bipiperidin]-4-yl)-7-fluoro-1-methyl-2-(4-(methylsulfonyl)phenyl)-1H-benzo[d]imidazole]
- IC50 [1]: 110 nM
- IC50 [1, 4]: 108 nM
- IC50 [2]: 15400 nM
- IC50 [3]: > 50000 nM

SMILES: Cn1c(-c2ccc(S(C)(=O)=O)cc2)nc2cc(C3CCN(C4CCN(CC5COC5)CC4)CC3)cc(F)c21 [Example 204, 7-fluoro-1-methyl-2-(4-(methylsulfonyl)phenyl)-5-(1′-(oxetan-3-ylmethyl)-[1,4′-bipiperidin]-4-yl)-1H-benzo[d]imidazole]
- IC50 [1]: 780 nM
- IC50 [1, 4]: 781 nM
- IC50 [2]: > 50000 nM
- IC50 [3]: > 50000 nM

SMILES: Cn1c(-c2ccc(S(C)(=O)=O)cc2)nc2cc(C3CCN(C4CCN(C5CCC5)CC4)CC3)cc(F)c21 [Example 205, 5-(1′-cyclobutyl-[1,4′-bipiperidin]-4-yl)-7-fluoro-1-methyl-2-(4-(methylsulfonyl)phenyl)-1H-benzo[d]imidazole]
- IC50 [1]: 110 nM
- IC50 [1, 4]: 114 nM
- IC50 [2]: 21300 nM
- IC50 [3]: > 50000 nM

SMILES: Cn1c(-c2ccc(S(C)(=O)=O)cc2)nc2cc(C3CCN(C4CCN(C5COC5)CC4)CC3)cc(F)c21 [Example 206, 7-fluoro-1-methyl-2-(4-(methylsulfonyl)phenyl)-5-(1′-(oxetan-3-yl)-[1,4′-bipiperidin]-4-yl)-1H-benzo[d]imidazole]
- IC50 [1]: 840 nM
- IC50 [1, 4]: 840 nM
- IC50 [2]: > 50000 nM
- IC50 [3]: > 50000 nM

SMILES: Cn1c(-c2ccc(S(C)(=O)=O)cc2)nc2cc(C3CCN(C4CCN(C5CCOCC5)CC4)CC3)cc(F)c21 [Example 207, 7-fluoro-1-methyl-2-(4-(methylsulfonyl)phenyl)-5-(1′-(tetrahydro-2H-pyran-4-yl)-[1,4′-bipiperidin]-4-yl)-1H-benzo[d]imidazole]
- IC50 [1]: 110 nM
- IC50 [1, 4]: 110 nM
- IC50 [2]: 18300 nM
- IC50 [3]: > 50000 nM

SMILES: COCCN1CCC(N2CCC(c3cc(F)c4c(c3)nc(-c3ccc(S(C)(=O)=O)cc3)n4C)CC2)CC1 [Example 208, 7-fluoro-5-(1′-(2-methoxyethyl)-[1,4′-bipiperidin]-4-yl)-1-methyl-2-(4-(methylsulfonyl)phenyl)-1H-benzo[d]imidazole]
- IC50 [1]: 940 nM
- IC50 [1, 4]: 937 nM
- IC50 [2]: > 50000 nM
- IC50 [3]: > 50000 nM

SMILES: CC(C)CN1C2CCC1CC(N1CCC(c3cc(F)c4c(c3)nc(-c3ccc(S(C)(=O)=O)cc3)n4C)CC1)C2 (centres unmarked) [Example 209, 7-fluoro-5-(1-(8-isobutyl-8-azabicyclo[3.2.1]octan-3-yl)piperidin-4-yl)-1-methyl-2-(4-(methylsulfonyl)phenyl)-1H-benzo[d]imidazole]
- IC50 [1]: 81 nM
- IC50 [1, 4]: 81 nM
- IC50 [2]: 16700 nM
- IC50 [3]: 16700 nM

SMILES: CC(C)CN1C2CCC1CC(N1CCC(c3cc(F)c4c(c3)nc(-c3ccc(S(C)(=O)=O)cc3)n4C)CC1)C2 (centres unmarked) [Example 210, 7-fluoro-5-(1-(8-isobutyl-8-azabicyclo[3.2.1]octan-3-yl)piperidin-4-yl)-1-methyl-2-(4-(methylsulfonyl)phenyl)-1H-benzo[d]imidazole]
- IC50 [1]: 120 nM
- IC50 [2]: > 50000 nM
- IC50 [3]: > 50000 nM

SMILES: Cn1c(-c2ccc(S(C)(=O)=O)cc2)nc2cc(C3CCN(C4CC5CCC(C4)N5C4CCOCC4)CC3)cc(F)c21 (centres unmarked) [Example 211, 7-fluoro-1-methyl-2-(4-(methylsulfonyl)phenyl)-5-(1-(8-(tetrahydro-2H-pyran-4-yl)-8-azabicyclo[3.2.1]octan-3-yl)piperidin-4-yl)-1H-benzo[d]imidazole]
- IC50 [1]: 270 nM
- IC50 [1, 4]: 165 nM
- IC50 [2]: > 50000 nM
- IC50 [3]: > 50000 nM

SMILES: Cn1c(-c2ccc(S(C)(=O)=O)cc2)nc2cc(C3CCN(C4CC5CCC(C4)N5C4CCOCC4)CC3)cc(F)c21 (centres unmarked) [Example 212, 7-fluoro-1-methyl-2-(4-(methylsulfonyl)phenyl)-5-(1-(8-(tetrahydro-2H-pyran-4-yl)-8-azabicyclo[3.2.1]octan-3-yl)piperidin-4-yl)-1H-benzo[d]imidazole]
- IC50 [1]: 460 nM
- IC50 [1, 4]: 456 nM
- IC50 [2]: > 50000 nM
- IC50 [3]: > 50000 nM

SMILES: Cn1c(-c2ccc(S(C)(=O)=O)cc2)nc2cc(C3CCN(C4CC5CCC(C4)N5CC4CC4)CC3)cc(F)c21 (centres unmarked) [Example 217, 5-(1-(8-(cyclopropylmethyl)-8-azabicyclo[3.2.1]octan-3-yl)piperidin-4-yl)-7-fluoro-1-methyl-2-(4-(methylsulfonyl)phenyl)-1H-benzo[d]imidazole]
- IC50 [1]: 130 nM
- IC50 [1, 4]: 125 nM
- IC50 [2]: 12900 nM
- IC50 [3]: > 50000 nM
